This is an account of results in patent US9321722B2, “Bis-indolic derivatives, their uses in particular as antibacterials” (UNIVERSITE JOSEPH FOURIER, priority 2011, dated 2016).

The subject of assay [1] is Staphylococcus aureus 1199B (overexpression of the NorA efflux pump). As to the kind of experiment: Efflux pump inhibition assay with sub-inhibitory ciprofloxacin. The assay is classed as cell-based. The settings on record: in the presence of ciprofloxacin 4 mg/L (MIC/4). The procedure:
The efflux pump inhibition potential of the bis-indolic derivatives was tested using two steps. In a first step, the intrinsic antibacterial activity of the compounds was assayed against the following strains:
The following experimental protocol was used: indolic derivatives (initially solubilised in DMSO at 10 mg/mL) were dispensed in a 96-wells microplate by two fold serial dilutions in Muller-Hinton medium (MH, Bio Rad) using a Biomek 2000 (Beckman) handling robot. 100 μL of the bacterial inoculum (an overnight culture at 37° C. in 5 mL MH diluted 100-fold) was then added in each well. The total volume was 200 μL in each well and the final bacteria concentration 10^6 CFU/mL (CFU: colony forming unit). The highest final indolic derivative concentration was 128 mg/L. Growth was assayed with a microplate reader by monitoring absorption at 620 nm after 1, 2, 5, 7 and 24 h incubation at 37° C. In addition, the plates were read visually after 24 hours incubation. Cultures containing 5 μL DMSO were used as growth controls. In addition, two controls containing a sub-inhibitory or a inhibitory antibiotic concentration for the tested strain were performed. The antibiotics used were ampicillin (0.5 and 32 μg/mL) for E. coli, kanamycin (0.5 and 16 μg/mL) for S. aureus ATCC 25923, ciprofloxacin (4 and 64 mg/L) for S. aureus 1199B, ciprofloxacin (0.5 and 2 mg/L) for S. aureus K2378. All experiments were performed in duplicate.
Efflux pump inhibition assays were then performed against resistant Staphylococcus aureus strains SA 1199B and SA K2378 for bis-indolic derivatives. […] The minimal inhibitory concentration (MIC) of the bis-indolic compound allowing a complete inhibition of the bacterial growth in the presence of ciprofloxacin was determined.

The test system of assay [2] is Pseudomonas aeruginosa CIP 5933. Briefly: MIC microdilution (Table I-1). The assay is classed as cell-based. The settings on record: CIP5933, read after 18 hours. The procedure: (§1) The microdilution method recommended by the Clinical and Laboratory Standard Institute [M07-A8, Vol. 29, N^o 2] was used. The activity of indolic compounds was tested against 29 bacterial strains belonging to 17 different species and 12 different genera (Staphylococcus, Streptococcus, Enterococcus, Listeria, Bacillus, Haemophilus, Escherichia, Klebsiella, Enterobacter, Serratia, Pseudomonas, and Acinetobacter). Bacterial inocula were prepared in Mueller Hinton broth (MH2, bioMerieux, Marcy L'Etoile, France), supplemented with 10% sheep blood for fastidious species (i.e., Streptococcus pneumoniae and Haemophilus influenzae). They were dispensed in 96 well microtiter plates (5×10^5 CFU/ml of final inoculum). Indolic compounds were added to the wells as to obtain two-fold serial concentrations (0.50-128 mg/L of final concentrations). Plates were incubated at 37° C. in ambient air, or at 37° C. in 5% CO2 enriched atmosphere for fastidious species. […] Drug-free cultures served as growth controls. Cultures receiving gentamicin, ciprofloxacin or cefotaxime served as positive controls.
(Broth dilution looks for growth in wells or tubes with falling amounts of substance.)

Assay [3] deals with S. pyogenes (group A) CIP 104226. As to the kind of experiment: MIC microdilution (Table I-1). The assay is classed as cell-based. The settings on record: Streptococcus pyogenes, CIP104226, read after 18 hours, read-out: MIC. As to the method: as §1
The next assay has as its system S. aureus ATCC 25923. As to the kind of experiment: MIC microdilution (Table I-1). Type of assay: cell-based. The following applies: Staphylococcus aureus, ATCC25923, read after 18 hours. The procedure: as §1
Assay [4] relates to Bacillus subtilis CIP 5262. As to the kind of experiment: MIC microdilution (Table I-1). The settings on record: CIP5262, read after 18 hours, read-out: MIC. Type of assay: cell-based. As to the method:
as §1

A further assay relates to E. faecalis ATCC 29212. As to the kind of experiment: MIC microdilution (Table I-1). Type of assay: cell-based. The settings on record: Enterococcus faecalis, ATCC29212, read after 18 hours, read-out: MIC. The procedure: as §1
The next assay has as its system S. mitis CIP 103335. As to the kind of experiment: MIC microdilution (Table I-1). Type of assay: cell-based. The following applies: Streptococcus mitis, CIP103335, read after 18 hours, read-out: MIC. The procedure:
as §1

Assay [5] relates to Acinetobacter baumanii ATCC 19606. As to the kind of experiment: MIC microdilution (Table I-1). Type of assay: cell-based. The settings on record: Acinetobacter baumannii, ATCC19606, read after 18 hours. As to the method: as §1
The subject of assay [6] is Enterobacter cloacae ATCC 13047. Briefly: MIC microdilution (Table I-1). Type of assay: cell-based. The settings on record: ATCC13047, read after 18 hours. As to the method:
as §1

In assay [7] the test system is Klebsiella pneumoniae ATCC 35657. As to the kind of experiment: MIC microdilution (Table I-1). The settings on record: ATCC35657, read after 18 hours, read-out: MIC. The assay is classed as cell-based. The procedure: as §1
In assay [8] the test system is Escherichia coli ATCC 25922. As to the kind of experiment: MIC microdilution (Table I-1). The assay is classed as cell-based. The following applies: ATCC25922, read after 18 hours. The procedure: as §1
Assay [9] has as its system Haemophilus influenzae ATCC 49766. Briefly: MIC microdilution (Table I-1). Type of assay: cell-based. The settings on record: ATCC49766; Haemophilus influenzae ATCC 49766; read after 18 hours; read-out: MIC. The procedure:
as §1

The next assay concerns E. faecium CIP 54.32. Briefly: MIC microdilution (Table I-1). Type of assay: cell-based. The settings on record: Enterococcus faecium, CIP54, read after 18 hours, read-out: MIC. As to the method: as §1
In a further assay the test system is S. aureus SA-1199B. As to the kind of experiment: MIC microdilution (Table I-1). Type of assay: cell-based, Staphylococcus aureus. The settings on record: Staphylococcus aureus, SA1199B, 18 h. The procedure:
as §1

Assay [10] concerns S. aureus ATCC 33592 (MRSA). As to the kind of experiment: MIC microdilution (Table I-1). Type of assay: cell-based, Staphylococcus aureus. The following applies: Staphylococcus aureus, read after 18 hours, read-out: MIC. As to the method:
as §1

The subject of assay [11] is S. aureus CIP 65.25 (MRSA). As to the kind of experiment: MIC microdilution (Table I-1). The following applies: Staphylococcus aureus, read after 18 hours, read-out: MIC. The assay is classed as cell-based, Staphylococcus aureus. The procedure: as §1
Another assay concerns S. aureus ATCC 9144. Briefly: MIC microdilution (Table I-1). The following applies: Staphylococcus aureus, ATCC9144, read after 18 hours, read-out: MIC. Type of assay: cell-based, Staphylococcus aureus. The procedure:
as §1

The subject of another assay is S. aureus ATCC 6538. Briefly: MIC microdilution (Table I-1). The settings on record: Staphylococcus aureus, ATCC6538, read after 18 hours, read-out: MIC. Type of assay: cell-based, Staphylococcus aureus. As to the method:
as §1

Assay [12] has as its system S. aureus ATCC 106414 (VISA). As to the kind of experiment: MIC microdilution (Table I-1). The assay is classed as cell-based, Staphylococcus aureus. The settings on record: Staphylococcus aureus, read after 18 hours, read-out: MIC. The procedure: as §1
The subject of another assay is S. aureus CIP 65.6. Briefly: MIC microdilution (Table I-1). The assay is classed as cell-based, Staphylococcus aureus. The following applies: Staphylococcus aureus, CIP65, read after 18 hours, read-out: MIC. The procedure:
as §1

The subject of a further assay is S. aureus CIP 103428. As to the kind of experiment: MIC microdilution (Table I-1). The following applies: Staphylococcus aureus, CIP103428, read after 18 hours, read-out: MIC. The assay is classed as cell-based, Staphylococcus aureus. The procedure: as §1
The next assay relates to S. aureus ATCC 29213. As to the kind of experiment: MIC microdilution (Table I-1). The settings on record: Staphylococcus aureus, ATCC29213, read after 18 hours, read-out: MIC. The assay is classed as cell-based, Staphylococcus aureus. The procedure: as §1

Converted amounts (≈) assume the structure as drawn.

Turning to `CC(C)(C)OC(=O)N1CCN(C(=O)C(=O)c2c[nH]c3ccccc23)C(c2c[nH]c3ccccc23)C1` (stereo not drawn) [Compound 6c, tert-Butyl 4-(2-(1H-indol-3-yl)-2-oxoacetyl)-3-(1H-indol-3-yl)piperazine-1-carboxylate], the “CMI, mg/L (Ciprofloxacin concentration, mg/L)” value (from here on “CMI, mg/L”) in assay [1] is on record as 0.25 (4) mg/L. Besides, the MIC (in assay [2]; in assay [3]; against S. aureus ATCC 25923; in assay [4]; with E. faecalis ATCC 29212; in the assay with S. mitis CIP 103335) was greater than 128 µg/mL in each case. For the same molecule, the MIC (in assay [5]; in assay [6]; in assay [7]; in [8]; in assay [9]; in the assay with E. faecium CIP 54.32) was greater than 128 µg/mL each time. Also, the MIC (in the assay with S. aureus SA-1199B; in assay [10]; in [11]; in the assay with S. aureus ATCC 9144; in the assay on S. aureus ATCC 6538; in assay [12]) was greater than 128 µg/mL throughout. Moreover, the MIC in the assay with S. aureus CIP 65.6, with S. aureus CIP 103428 and in the assay with S. aureus ATCC 29213 was greater than 128 µg/mL throughout.

Turning to `O=C(C(=O)N1CCCCC1c1c[nH]c2ccc(Br)cc12)c1c[nH]c2ccc(Br)cc12` (stereo not drawn) [Compound 6d, 1-(5-Bromo-1H-indol-3-yl)-2-(2-(5-bromo-1H-indol-3-yl)piperidin-1-yl)ethane-1,2-dione], the “CMI, mg/L” value in assay [1] was <0.125 (4) mg/L. Also, the MIC (in assay [2]; in assay [3]; in the assay on S. aureus ATCC 25923; in assay [4]; in the assay with E. faecalis ATCC 29212; in the assay with S. mitis CIP 103335) was greater than 128 µg/mL in each case. Also, the MIC (in assay [5]; in assay [6]; in assay [7]; in assay [8]; in assay [9]; in the assay on E. faecium CIP 54.32) was greater than 128 µg/mL in each case. Also, the MIC (with S. aureus SA-1199B; in assay [10]; in [11]; with S. aureus ATCC 9144; with S. aureus ATCC 6538; in assay [12]) was greater than 128 µg/mL throughout. Further, the results for the MIC with S. aureus CIP 65.6, in the assay on S. aureus CIP 103428 and in the assay with S. aureus ATCC 29213 were greater than 128 µg/mL, greater than 128 µg/mL and 2 to 4 µg/mL (≈ 3.78 to 7.56 µM), respectively.

As to `CC(C)(C)OC(=O)N1CCN(C(=O)C(=O)c2c[nH]c3ccc(Br)cc23)C(c2c[nH]c3ccc(Br)cc23)C1` (stereo not drawn) [Compound 6f, tert-Butyl 3-(5-bromo-1H-indol-3-yl)-4-(2-(5-bromo-1H-indol-3-yl)-2-oxoacetyl) piperazine-1-carboxylate], in [1], the “CMI, mg/L” value is reported as <0.25 (4) mg/L. Moreover, the MIC (in assay [2]; in assay [3]; in the assay on S. aureus ATCC 25923; in assay [4]; in the assay with E. faecalis ATCC 29212; with S. mitis CIP 103335) was greater than 128 µg/mL throughout. In addition, the MIC (in [5]; in assay [6]; in assay [7]; in assay [8]; in [9]; in the assay with E. faecium CIP 54.32) was greater than 128 µg/mL throughout. Further, the MIC (against S. aureus SA-1199B; in assay [10]; in [11]; with S. aureus ATCC 9144; with S. aureus ATCC 6538; in assay [12]) was greater than 128 µg/mL each time. The MIC in the assay on S. aureus CIP 65.6 was greater than 128 µg/mL; with S. aureus CIP 103428, greater than 128 µg/mL; with S. aureus ATCC 29213, 2 to 4 µg/mL (≈ 3.17 to 6.35 µM).
